Consider three compounds from ChEMBL document CHEMBL5154729, “A fragment integrational approach to GPCR inhibition: Identification of a high affinity small molecule CXCR4 antagonist” (Eur J Med Chem, 2022).

SMILES strings stand for the structures. Active and inactive are the calls of the source. The rule behind the calls is not given here.

For series [1], the target named is T1, C-X-C chemokine receptor type 4 (Homo sapiens, UniProt P61073). The series is described as follows: Antagonist activity at CXCR4 receptor in human SUP-T1 assessed as inhibition of SDF-1alpha-induced CXCR4 internalization at 0.1 to 10 uM and measured by flow cytometry analysis. Type of series: functional, cell-based. The settings on record: filed as antagonist, dose 0.1-10 µM, DDE = dose-dependent effect. For orientation: In flow cytometry, cells or beads pass a laser one at a time.

The test system of series [2] is SUP-T1. The experiment in a line: Cytotoxicity against human SUP-T1 cells at 10 to 50 uM after 72 hrs CellTiter-96 assay. The settings on record: sup-t1, 72 h, dose 10-50 µM. Type of series: toxicity, cell-based.
The target in series [3] is T1, C-X-C chemokine receptor type 4. The experiment in a line: Antagonist activity at CXCR4 receptor in SDF-1alpha-stimulated human SUP-T1 cells measured by calcium mobilization assay. The class given is functional, cell-based. For orientation: Calcium flux is commonly read through the fluorescence of an indicator in the cells.
For series [4] the target is unchanged. The series is described as follows: Binding affinity to CXCR4 (unknown origin) expressed in CHO cells measured by 12G5 competitive binding method. Type of series: cell-based.
For series [5] the target is unchanged. The series is described as follows: Antagonist activity at CXCR4 receptor in CHO cells expressing EGFP-CXCR4 assessed as inhibition of SDF-1alpha-induced CXCR4 internalization at 1 to 100 nM and measured by confocal microscopy. The settings on record: filed as antagonist, dose 1-100 nM. The class given is functional, cell-based.
Series [6] deals with Human immunodeficiency virus 1. The experiment in a line: Antiviral activity against HIV1 NL4-3 virus infected in human CEM-GFP cells assessed as reduction in CXCR4-mediated HIV-1 infection at 0.1 to 10000 nM measured by fluorescence assay. The class given is functional, organism-based. The settings on record: dose 0.1-10000 nM.
Series [7] concerns CCRF-CEM. The experiment in a line: Cytotoxicity against human CEM-GFP cells at 0.32 to 25000 nM measured by CellTiter-Blue cell viability assay. Type of series: toxicity, cell-based. The settings on record: 25 µM, dose 0.32-25000 nM.
The subject of series [8] is C-X-C chemokine receptor type 4 (Homo sapiens), P61073 [E288A]. The series is described as follows: Binding affinity to CXCR4 E288A mutant (unknown origin) expressed in CHO cells at 100 nM measured by 12G5 competitive binding method. Type of series: cell-based. The settings on record: filed as antagonist.
For series [9], the system named is C-X-C chemokine receptor type 4 (Homo sapiens), P61073 [E288D]. The experiment in a line: Binding affinity to CXCR4 E288D mutant (unknown origin) expressed in CHO cells at 100 nM measured by 12G5 competitive binding method. The class given is cell-based. The settings on record: filed as antagonist.
In series [10] the test system is C-X-C chemokine receptor type 4 (Homo sapiens), P61073 [D262A]. The series is described as follows: Binding affinity to CXCR4 D262A mutant (unknown origin) expressed in CHO cells at 100 nM measured by 12G5 competitive binding method. Type of series: cell-based. The settings on record: filed as antagonist.
Series [11] concerns CHO. The series is described as follows: Binding affinity to CXCR4 D262E mutant (unknown origin) expressed in CHO cells at 100 nM measured by 12G5 competitive binding method. The class given is cell-based. The settings on record: Homo sapiens, filed as antagonist.
For series [12], the target named is T1, C-X-C chemokine receptor type 4. The series is described as follows: Antagonist activity at CXCR4 receptor expressed in CHO cells transfected with CRE-luc2P assessed as reduction in forskolin-stimulated SDF-1alpha-mediated inhibition of cAMP production at 10 uM and measured by luciferase reporter gene assay. The class given is functional, cell-based. The settings on record: filed as antagonist.

For series [13] the target is unchanged. The series is described as follows: Antagonist activity at CXCR4 receptor expressed in CHO cells transfected with NFAT-RE-luc2P assessed as reduction in SDF-1alpha-mediated calcium signaling pathway at 10 uM and measured by luciferase reporter gene assay. Type of series: functional, cell-based. The settings on record: filed as antagonist.
Series [14] has the same target. The experiment in a line: Antagonist activity at CXCR4 receptor expressed in CHO cells transfected with SRE-luc2P assessed as reduction in SDF-1alpha-mediated ERK/MAPK activation at 10 uM and measured by luciferase reporter gene assay. The class given is functional, cell-based. The settings on record: filed as antagonist.
The target is the same in series [15]. The experiment in a line: Antagonist activity at CXCR4 receptor expressed in CHO cells transfected with […] assessed as reduction in SDF-1alpha-mediated RhoA activation at 10 uM and measured by luciferase reporter gene assay. The class given is functional, cell-based. The settings on record: filed as antagonist. Background: A reporter such as luciferase makes a cellular process visible.

For series [16] the target is unchanged. The experiment in a line: Binding affinity to CXCR4 (unknown origin) expressed in CHO cells measured by Scatchard plot analysis. The class given is cell-based.

T1 sequence (P61073 whole entry): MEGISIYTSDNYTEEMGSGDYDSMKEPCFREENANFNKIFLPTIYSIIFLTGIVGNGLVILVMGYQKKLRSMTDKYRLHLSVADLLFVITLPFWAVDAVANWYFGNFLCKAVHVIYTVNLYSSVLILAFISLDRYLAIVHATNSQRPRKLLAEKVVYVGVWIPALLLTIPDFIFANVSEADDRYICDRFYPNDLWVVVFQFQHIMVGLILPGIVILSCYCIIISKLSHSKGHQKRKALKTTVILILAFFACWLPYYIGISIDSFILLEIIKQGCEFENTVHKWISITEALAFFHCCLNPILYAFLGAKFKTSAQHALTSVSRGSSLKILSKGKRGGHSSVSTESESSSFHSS
Sequence of C-X-C chemokine receptor type 4 (Homo sapiens), P61073 [E288D] (P61073 whole entry E288D): as the sequence (P61073 whole entry) above, with E288D counted along it
Sequence of C-X-C chemokine receptor type 4 (Homo sapiens), P61073 [E288A] (P61073 whole entry E288A): as the sequence (P61073 whole entry) above, with E288A counted along it
Sequence of C-X-C chemokine receptor type 4 (Homo sapiens), P61073 [D262A] (P61073 whole entry D262A): as the sequence (P61073 whole entry) above, with D262A counted along it

As to `c1cc(CN2CCCNCCNCCCNCC2)ccc1CN1CCCNCCNCCCNCC1`, the inhibition result in series [1] was “Dde”.

In general, IC50 refers to the concentration at which inhibition is half-maximal. As for `N=C(N)NCCC[C@H](NCc1ccccn1)C(=O)NCc1ccc(CNCCCNC2CCCCC2)cc1`, the Activity result is “Non-Toxic” in series [2]; “Non-Toxic” in series [7]; greater than 90% in series [8]; greater than 60% in series [9]; greater than 40% in [10]; greater than 60% in [11]. Further, the values for the IC50 in series [3] and in series [4] were 1.6 nM and 12 nM, respectively. In addition, the inhibition result in [5] is “Active”. Also, in series [1], the inhibition entry was “Dde”. Further, the outcome in [6], in series [12], in [13], in [14] and in series [15] was Active.

In general, Kd refers to the concentration at which binding is half-saturated. A low value points to a tighter complex. The compound `N/C(=N\C(=O)CCCCCNC(=S)Nc1ccc2c(c1)C(=O)OC21c2ccc(O)cc2Oc2cc(O)ccc21)NCCC[C@H](NCc1ccccn1)C(=O)NCc1ccc(CNCCCNC2CCCCC2)cc1` registered a Kd in [16] of 33 nM.
